Assay results: publication PMC9479156 (Frontiers in Pharmacology, 2022)
Read-outs that look alike come from different tables or passages of the source.

How the values were obtained:
[1] = test system: A549 human lung carcinoma; assay: MTT cytotoxicity assay A549; format: cell-based; settings: for SI, selectivity index IC50 normal cell line/IC50 tumour cell line: BEAS-2B/A549; for IC50: Homo sapiens, read-out: IC50 A549
Description: (§1) Proliferative and non-proliferative mammalian cell lines: human liver and lung cancer cell lines HepG2 and A549, and immortalized normal liver LO2 and lung BEAS-2B cells were purchased from ATCC (Manassas, VA, United States). Cells were cultured in RPMI-1640 medium supplemented with 10% fetal bovine serum and antibiotics penicillin (50 U/mL) and streptomycin (50 μg/ml; Invitrogen, United Kingdom). All cells were incubated at 37°C in a 5% humidified CO2 incubator.
(§2) All test compounds were dissolved in DMSO at a final concentration of 50 mM and stored at −20°C before use. Cytotoxicity was assessed with A549, HepG2, BEAS-2B and LO2 cells. The MTT assay with 3-(4,5-dimethylthiazole-2yl)-2,5-diphenyltetrazolium bromide (5 mg/ml) was performed as previously described ([Ng et al., 2022]). Briefly, 4 × 10^3 cells per well were seeded in 96-well plates before drug treatment. After overnight cell culture, the cells were exposed to different concentrations of selected compounds (0.19–100 μM) for 72 h. Cells without drug treatment were used as control. Next, 10 μl of the MTT solution was added to each well and incubated at 37°C for another 4 h. Solubilization buffer (100 μl) was then added (10 mM HCl in a solution of 10% of SDS) and incubated overnight. The absorbance A at 570 nm was measured on the next day. The percentage of cell viability was calculated using the following formula: Cell viability (%) = Atreated/Acontrol × 100. Dose response curves for all assays are given in the Supplementary Figures S3–S6.
(§3) Cytotoxicity was assessed for each of artemisinin, DHA and artemether, and the amino-artemisinins artemiside and artemisone, and celastrol against A549 human lung carcinoma, BEAS-2B non-tumorigenic human bronchial epithelium, HepG2 liver hepatocellular carcinoma and LO2 human normal hepatocytes using the MTT assay ([Ng et al., 2022]). Data are presented in Table 4, and dose response curves are given in the Supplementary Figures S3–S6.

[2] = test system: BEAS-2B non-tumorigenic human bronchial epithelium; assay: MTT cytotoxicity assay BEAS-2B; format: cell-based; settings: 72 h, read-out: IC50 BEAS-2B
Description: as §1, §2, §3

[3] = test system: HepG2 liver hepatocellular carcinoma; assay: MTT cytotoxicity assay HepG2; format: cell-based, human; settings: for IC50: Homo sapiens, read-out: IC50 HepG2; for SI, selectivity index IC50 normal cell line/IC50 tumour cell line: LO2/HepG2
Description: as §1, §2, §3

[4] = test system: LO2 human normal hepatocytes; assay: MTT cytotoxicity assay LO2; format: cell-based; settings: Hepatocyte, 72 h, read-out: IC50 LO2
Description: as §1, §2, §3

[5] = test system: HepG2 liver hepatocellular carcinoma; assay: Cytotoxicity drug combination (isobole) assay HepG2; format: cell-based, human
Description: For the drug combination inhibitory assays, six drug preparations, of which four comprised combinations of either artemiside or artemisone with celastrol in a fixed ratio of 80:20, 60:40, 40:60, and 20:80 were prepared and screened against HepG2 liver hepatocellular carcinoma and LO2 human normal hepatocytes respectively. Two of these six preparations employed each of artemiside, artemisone or celastrol alone at a concentration approximately 5–7 times higher than the IC50 of the individual drug as presented in Table 4. […] Thus, six combinations for artemiside (µM) and celastrol (µM) prepared were 500:0, 400:4, 300:8, 200:12, 100:16, and 0:20, respectively.
As above for the malaria combination assays, a mean ΣFIC<1.0 represents a synergistic interaction, >1.3 represents an antagonistic interaction and ΣFIC = 1 represents an indifferent or additive interaction. Additivity, synergism and antagonism were also be established from the linear plots constructed from the FIC values of each of the drugs. A concave hyperbolic plot indicates synergism, a convex hyperbolic plot indicates an antagonistic interaction, and a straight line indicates an additive interaction. Isobole analysis of the combinations of each of artemiside and artemisone in combination with celastrol was performed against HepG2 and LO2 cells respectively. In Figure 5 is presented the isoboles for each drug combination.
Next, combinations of each of artemiside and artemisone with celastrol were examined, according to the method used to establish additivity/synergism described above. […] Against the normal hepatocyte LO2 cell line, whilst the interaction of artemisone with celastrol was synergistic, that of artemiside was additive. Synergism and additivity were also evident from the linear plots determined from the FIC values of each of the drugs (Table 5 and Figure 6). Thus, synergism is confirmed for combinations of the amino-artemisinins with celastrol against the HepG2 carcinoma cell line, and for artemisone-celastrol against human normal hepatocyte LO2.

[6] = test system: drug-sensitive and resistant asexual blood stage Pf; assay: Asexual blood stage activity over all strains (abstract); format: cell-based; settings: Plasmodium falciparum, read-out: IC50 asexual blood stage Pf
Description: DHA, artesunate, artemether, chloroquine (CQ), and methylene blue (MB) were used as reference drugs. All assay conditions are as previously described ([Coertzen et al., 2018]; [Wong et al., 2019]). Compound working solutions were prepared from a 10 mM stock solution in 100% (v/v) dimethyl sulfoxide (DMSO; Sigma-Aldrich) in AlbuMAX II supplemented RPMI 1640 medium with a final DMSO concentration of 0.1% (v/v), shown to be nontoxic […] to intraerythrocytic asexual blood stage parasites ([Coertzen et al., 2018]). Dose-responses were determined using a 2-fold serial drug dilution on in vitro 95% ring-stage intraerythrocytic Pf parasites (1% parasitemia, 1% hematocrit) at 37°C under 90% N2, 5% CO2, and 5% O2 atmospheric conditions, detecting SYBR green I fluorescence as a marker for parasite proliferation following a 96 h drug treatment ([Smilkstein et al., 2004]; [Verlinden et al., 2011]). Activity against the Pf drug-sensitive NF54 strain and the multi drug-resistant K1 (resistant to CQ, quinine, pyrimethamine, and cycloguanil), and W2 (resistant to CQ, quinine, pyrimethamine, and cycloguanil) strains was evaluated. […] Data analysis was performed using GraphPad Prism (version 6) software, intra-assay variability was monitored with Z-factors, and acceptable inter-assay reproducibility was determined from the percent coefficient of variation (CV) ([Reader et al., 2015]). […]

[7] = artemisone:celastrol drug ratio 20:80, HepG2
[8] = artemisone:celastrol drug ratio 40:60, HepG2
[9] = artemisone:celastrol drug ratio 60:40, HepG2
[10] = artemisone:celastrol drug ratio 80:20, HepG2

## C[C@H]1[C@H](N2CCS(=O)(=O)CC2)O[C@@H]2O[C@@]3(C)CC[C@H]4[C@H](C)CC[C@@H]1[C@@]24OO3 [Artemisone, artemisone]
[1]
  SI, selectivity index IC50 normal cell line/IC50 tumour cell line: <0.7
[1]; A549, MTT, 72 h, ± SD
  IC50: > 100 µM
[2]; MTT, ± SD
  IC50: 73.6 ± 1.4 µM
[3]; HepG2, MTT, 72 h, ± SD
  IC50: 0.58 ± 0.2 µM
[3]
  SI, selectivity index IC50 normal cell line/IC50 tumour cell line: >171
[3]; listed as artemisone
  SI, selectivity index IC50 normal cell line/IC50 tumour cell line: > 170
[4]; MTT, ± SD
  IC50: > 100 µM
[5]; [7]
  FIC: 0.3
[5]; [8]
  FIC: 0.36
[5]; [9]
  FIC: 0.48
[5]; [10]
  FIC: 0.76

## CC1=C(O)C(=O)C=C2C1=CC=C1[C@@]2(C)CC[C@@]2(C)[C@@H]3C[C@](C)(C(=O)O)CC[C@]3(C)CC[C@]12C [Celastrol, celastrol]
[1]
  SI, selectivity index IC50 normal cell line/IC50 tumour cell line: 0.16
[1]; A549, 72 h
  IC50: 2.83 ± 0.12 µM
[2]
  IC50: 0.45 ± 0.1 µM
[3]; HepG2, 72 h
  IC50: 0.94 ± 0.1 µM
[3]
  SI, selectivity index IC50 normal cell line/IC50 tumour cell line: 0.83
[3]; listed as celastrol
  SI, selectivity index IC50 normal cell line/IC50 tumour cell line: < 1
[4]
  IC50: 0.78 ± 0.2 µM
[5]; artemiside:celastrol drug ratio 20:80, HepG2
  FIC: 0.35
[5]; artemiside:celastrol drug ratio 40:60, HepG2
  FIC: 0.34
[5]; artemiside:celastrol drug ratio 60:40, HepG2
  FIC: 0.14
[5]; artemiside:celastrol drug ratio 80:20, HepG2
  FIC: 0.08
[5]; [7]
  FIC: 0.88
[5]; [8]
  FIC: 0.4
[5]; [9]
  FIC: 0.23
[5]; [10]
  FIC: 0.14
[6]
  IC50: 0.5 to 0.82 µM
